The series is described as follows: RuAAC macrocyclisation of azide/terminal alkyne linear peptidomimetics to 1,5-triazole ([Cp*RuCl]4 0.1 eq, Ar-degassed), then Boc removal (TMSCl/MeOH GP4 or HCl/dioxane GP5). The settings on record: toluene (reflux), 1.25 mM, 111.0 °C, 18.0 h, 2 steps.

SMILES strings stand for the structures.

Take `COC(=O)[C@@H]1CNC(=O)[C@H](Cc2ccccc2)n2nncc2CCCC(=O)Nc2ccc(cc2)C[C@H](N)C(=O)N1` [Boc-Phe(4-NH-5-hexynoyl)-Dap(N3-Phe)-OMe]: the ring closure, yield over several steps (from C#CCCCC(=O)Nc1ccc(C[C@H](NC(=O)OC(C)(C)C)C(=O)N[C@@H](CNC(=O)[C@H](Cc2ccccc2)N=[N+]=[N-])C(=O)OC)cc1, 20-membered ring) was found to be 15%.

For `COC(=O)[C@@H]1CCCCn2nncc2CCC(=O)Nc2ccc(cc2)C[C@H](N)C(=O)N1` [Boc-Phe(4-NH-4-pentynoyl)-Lys(N3)-OMe], the ring closure, yield over several steps (from C#CCCC(=O)Nc1ccc(C[C@H](NC(=O)OC(C)(C)C)C(=O)N[C@@H](CCCCN=[N+]=[N-])C(=O)OC)cc1, 19-membered ring) amounted to 71%.

The compound `COC(=O)[C@@H]1CCCCn2nncc2CCCC(=O)NCCC[C@H](N)C(=O)N1` [Boc-Orn(5-hexynoyl)-Lys(N3)-OMe] registered a ring closure, yield over several steps (from C#CCCCC(=O)NCCC[C@H](NC(=O)OC(C)(C)C)C(=O)N[C@@H](CCCCN=[N+]=[N-])C(=O)OC, 18-membered ring) of 99%.

As to `COC(=O)[C@@H]1CCCn2nncc2CNC(=O)NCC[C@H](N)C(=O)N1` [Boc-Dab(CONH-propargyl)-Orn(N3)-OMe], the ring closure, yield over several steps (from C#CCNC(=O)NCC[C@H](NC(=O)OC(C)(C)C)C(=O)N[C@@H](CCCN=[N+]=[N-])C(=O)OC, 15-membered ring) stood at 99%.

In turn, `COC(=O)[C@@H]1CCCCNC(=O)[C@H](Cc2ccccc2)n2nncc2CCCC(=O)NC[C@H](N)C(=O)N1` [Boc-Dap(5-hexynoyl)-Lys(N3-Phe)-OMe] showed a ring closure, yield over several steps (from C#CCCCC(=O)NC[C@H](NC(=O)OC(C)(C)C)C(=O)N[C@@H](CCCCNC(=O)[C@H](Cc1ccccc1)N=[N+]=[N-])C(=O)OC, 19-membered ring) of 99%.

Turning to `COC(=O)[C@@H]1CCCCNC(=O)[C@H](Cc2ccccc2)n2nncc2CCCC(=O)Nc2ccc(cc2)C[C@H](N)C(=O)N1` [Boc-Phe(4-NH-5-hexynoyl)-Lys(N3-Phe)-OMe], where the note is “from C#CCCCC(=O)Nc1ccc(C[C@H](NC(=O)OC(C)(C)C)C(=O)N[C@@H](CCCCNC(=O)[C@H](Cc2ccccc2)N=[N+]=[N-])C(=O)OC)cc1, 23-membered ring”, the ring closure, yield over several steps turned out to be 50%.

For `COC(=O)[C@@H]1CCCn2nncc2CCC(=O)NCC[C@H](N)C(=O)N1` [Boc-Dab(4-pentynoyl)-Orn(N3)-OMe], the ring closure, yield over several steps (from C#CCCC(=O)NCC[C@H](NC(=O)OC(C)(C)C)C(=O)N[C@@H](CCCN=[N+]=[N-])C(=O)OC, 15-membered ring) worked out at 82%.

For the setting “from C#CCNC(=O)NCC[C@H](NC(=O)OC(C)(C)C)C(=O)N[C@@H](CCCCNC(=O)[C@H](Cc1ccccc1)N=[N+]=[N-])C(=O)OC, 19-membered ring”, `COC(=O)[C@@H]1CCCCNC(=O)[C@H](Cc2ccccc2)n2nncc2CNC(=O)NCC[C@H](N)C(=O)N1` [Boc-Dab(CONH-propargyl)-Lys(N3-Phe)-OMe] yielded a ring closure, yield over several steps of 78%.

Where the note is “from C#CCCCC(=O)NCCC[C@H](NC(=O)OC(C)(C)C)C(=O)N[C@@H](CCCCNC(=O)[C@H](Cc1ccccc1)N=[N+]=[N-])C(=O)OC, 21-membered ring”, `COC(=O)[C@@H]1CCCCNC(=O)[C@H](Cc2ccccc2)n2nncc2CCCC(=O)NCCC[C@H](N)C(=O)N1` [Boc-Orn(5-hexynoyl)-Lys(N3-Phe)-OMe] came in with a ring closure, yield over several steps of 86%.

On to `COC(=O)[C@@H]1Cc2ccc(cc2)-n2nncc2CCC(=O)NC[C@H](N)C(=O)N1` [Boc-Dap(4-pentynoyl)-Phe(4-N3)-OMe], for which the ring closure, yield over several steps (from C#CCCC(=O)NC[C@H](NC(=O)OC(C)(C)C)C(=O)N[C@@H](Cc1ccc(N=[N+]=[N-])cc1)C(=O)OC, 16-membered ring) turned out to be 33%.

In turn, `COC(=O)[C@@H]1CCCn2nncc2CCCC(=O)Nc2ccc(cc2)C[C@H](N)C(=O)N1` [Boc-Phe(4-NH-5-hexynoyl)-Orn(N3)-OMe] yielded a ring closure, yield over several steps (from C#CCCCC(=O)Nc1ccc(C[C@H](NC(=O)OC(C)(C)C)C(=O)N[C@@H](CCCN=[N+]=[N-])C(=O)OC)cc1, 19-membered ring) of 68%.

For `COC(=O)[C@@H]1CNC(=O)[C@H](Cc2ccccc2)n2nncc2CNC(=O)NCCCC[C@H](N)C(=O)N1` [Boc-Lys(CONH-propargyl)-Dap(N3-Phe)-OMe], the ring closure, yield over several steps (from C#CCNC(=O)NCCCC[C@H](NC(=O)OC(C)(C)C)C(=O)N[C@@H](CNC(=O)[C@H](Cc1ccccc1)N=[N+]=[N-])C(=O)OC, 18-membered ring) turned out to be 96%.

Take `COC(=O)[C@@H]1CNC(=O)[C@H](Cc2ccccc2)n2nncc2CCC(=O)NCCCC[C@H](N)C(=O)N1` [Boc-Lys(4-pentynoyl)-Dap(N3-Phe)-OMe]: the ring closure, yield over several steps (from C#CCCC(=O)NCCCC[C@H](NC(=O)OC(C)(C)C)C(=O)N[C@@H](CNC(=O)[C@H](Cc1ccccc1)N=[N+]=[N-])C(=O)OC, 18-membered ring) amounted to 90%.

With `COC(=O)[C@@H]1CCCCNC(=O)[C@H](Cc2ccccc2)n2nncc2CNC(=O)NCCCC[C@H](N)C(=O)N1` [Boc-Lys(CONH-propargyl)-Lys(N3-Phe)-OMe], the ring closure, yield over several steps (from C#CCNC(=O)NCCCC[C@H](NC(=O)OC(C)(C)C)C(=O)N[C@@H](CCCCNC(=O)[C@H](Cc1ccccc1)N=[N+]=[N-])C(=O)OC, 21-membered ring) was determined as 81%.

Where the note is “from C#CCNC(=O)NCCC[C@H](NC(=O)OC(C)(C)C)C(=O)N[C@@H](CCCCN=[N+]=[N-])C(=O)OC, 17-membered ring”, `COC(=O)[C@@H]1CCCCn2nncc2CNC(=O)NCCC[C@H](N)C(=O)N1` [Boc-Orn(CONH-propargyl)-Lys(N3)-OMe] returned a ring closure, yield over several steps of 99%.

Consider `COC(=O)[C@@H]1CCCCNC(=O)[C@H](Cc2ccccc2)n2nncc2CCCC(=O)NCCCC[C@H](N)C(=O)N1` [Boc-Lys(5-hexynoyl)-Lys(N3-Phe)-OMe], for which, where the note is “from C#CCCCC(=O)NCCCC[C@H](NC(=O)OC(C)(C)C)C(=O)N[C@@H](CCCCNC(=O)[C@H](Cc1ccccc1)N=[N+]=[N-])C(=O)OC, 22-membered ring”, the ring closure, yield over several steps is 60%.

For the compound `COC(=O)[C@@H]1CNC(=O)[C@H](Cc2ccccc2)n2nncc2CNC(=O)NCCC[C@H](N)C(=O)N1` [Boc-Orn(CONH-propargyl)-Dap(N3-Phe)-OMe], the ring closure, yield over several steps (from C#CCNC(=O)NCCC[C@H](NC(=O)OC(C)(C)C)C(=O)N[C@@H](CNC(=O)[C@H](Cc1ccccc1)N=[N+]=[N-])C(=O)OC, 17-membered ring) came to 86%.

Under “from C#CCNC(=O)NCC[C@H](NC(=O)OC(C)(C)C)C(=O)N[C@@H](CCCCN=[N+]=[N-])C(=O)OC, 16-membered ring”, `COC(=O)[C@@H]1CCCCn2nncc2CNC(=O)NCC[C@H](N)C(=O)N1` [Boc-Dab(CONH-propargyl)-Lys(N3)-OMe] gave a ring closure, yield over several steps of 99%.

Take `COC(=O)[C@@H]1CCCn2nncc2CCCC(=O)NCCCC[C@H](N)C(=O)N1` [Boc-Lys(5-hexynoyl)-Orn(N3)-OMe]: where the note is “from C#CCCCC(=O)NCCCC[C@H](NC(=O)OC(C)(C)C)C(=O)N[C@@H](CCCN=[N+]=[N-])C(=O)OC, 18-membered ring”, the ring closure, yield over several steps was 99%.

As for `COC(=O)[C@@H]1CCCCNC(=O)[C@H](Cc2ccccc2)n2nncc2CNC(=O)NCCC[C@H](N)C(=O)N1` [Boc-Orn(CONH-propargyl)-Lys(N3-Phe)-OMe], the ring closure, yield over several steps (from C#CCNC(=O)NCCC[C@H](NC(=O)OC(C)(C)C)C(=O)N[C@@H](CCCCNC(=O)[C@H](Cc1ccccc1)N=[N+]=[N-])C(=O)OC, 20-membered ring) stood at 56%.

Where the note is “from C#CCCCC(=O)NCC[C@H](NC(=O)OC(C)(C)C)C(=O)N[C@@H](CCCCNC(=O)[C@H](Cc1ccccc1)N=[N+]=[N-])C(=O)OC, 20-membered ring”, `COC(=O)[C@@H]1CCCCNC(=O)[C@H](Cc2ccccc2)n2nncc2CCCC(=O)NCC[C@H](N)C(=O)N1` [Boc-Dab(5-hexynoyl)-Lys(N3-Phe)-OMe] registered a ring closure, yield over several steps of 87%.

Consider `COC(=O)[C@@H]1CNC(=O)[C@H](Cc2ccccc2)n2nncc2CCCC(=O)NCCCC[C@H](N)C(=O)N1` [Boc-Lys(5-hexynoyl)-Dap(N3-Phe)-OMe], for which the ring closure, yield over several steps (from C#CCCCC(=O)NCCCC[C@H](NC(=O)OC(C)(C)C)C(=O)N[C@@H](CNC(=O)[C@H](Cc1ccccc1)N=[N+]=[N-])C(=O)OC, 19-membered ring) was determined as 99%.

In turn, `COC(=O)[C@@H]1CCCCn2nncc2CCCC(=O)NCC[C@H](N)C(=O)N1` [Boc-Dab(5-hexynoyl)-Lys(N3)-OMe] showed a ring closure, yield over several steps (from C#CCCCC(=O)NCC[C@H](NC(=O)OC(C)(C)C)C(=O)N[C@@H](CCCCN=[N+]=[N-])C(=O)OC, 17-membered ring) of 99%.

Compound `COC(=O)[C@@H]1CCCCn2nncc2CCCC(=O)Nc2ccc(cc2)C[C@H](N)C(=O)N1` [Boc-Phe(4-NH-5-hexynoyl)-Lys(N3)-OMe] came in with a ring closure, yield over several steps (from C#CCCCC(=O)Nc1ccc(C[C@H](NC(=O)OC(C)(C)C)C(=O)N[C@@H](CCCCN=[N+]=[N-])C(=O)OC)cc1, 20-membered ring) of 66%.

Under “from C#CCCC(=O)NCCC[C@H](NC(=O)OC(C)(C)C)C(=O)N[C@@H](CNC(=O)[C@H](Cc1ccccc1)N=[N+]=[N-])C(=O)OC, 17-membered ring”, `COC(=O)[C@@H]1CNC(=O)[C@H](Cc2ccccc2)n2nncc2CCC(=O)NCCC[C@H](N)C(=O)N1` [Boc-Orn(4-pentynoyl)-Dap(N3-Phe)-OMe] gave a ring closure, yield over several steps of 93%.

Source of the values: publication PMC4441267.
